Results taken from ChEMBL document CHEMBL1649342, “Synthesis of azafluorenone antimicrobial agents” (2010).
≈ marks a conversion by molar mass, not a printed value.

How the values were obtained:
Assay type in all cases: functional
Saccharomyces cerevisiae = assay: Antimicrobial activity against Saccharomyces cerevisiae IFO 0203
Escherichia coli = assay: Antimicrobial activity against Escherichia coli IFO 3545
Candida albicans = assay: Antimicrobial activity against Candida albicans B311
Staphylococcus aureus = assay: Antimicrobial activity against Staphylococcus aureus NCTC 8530
Bacillus subtilis = assay: Antimicrobial activity against Bacillus subtilis IFO 3007

MIC (Saccharomyces cerevisiae): 50 µg/mL (≈ 256 µM) | MIC (Escherichia coli): 50 µg/mL (≈ 256 µM) | MIC (Candida albicans): 3.12 µg/mL (≈ 16 µM) | MIC (Staphylococcus aureus): 50 µg/mL (≈ 256 µM) | MIC (Bacillus subtilis): 50 µg/mL (≈ 256 µM)
SMILES: Cc1ccnc2c1C(=O)c1ccccc1-2 [ONYCHINE]
